According to publication PMC11995724, “Antibiotic target discovery by integrated phenotypic and activity-based profiling of electrophilic fragments” (Cell chemical biology, 2025):

Assay: in vitro
Details: human, hek293t cells

Compared with `C=CC(=O)N1CCOC2(CCCC2)C1` [3-I11, 1-{6-oxa-9-azaspiro[4.5]decan-9-yl}prop-2-en-1-one], `C=CC(=O)N1CCOCC2(COCCN2C)C1` (stereo not drawn) [3-J14, 1-{1-methyl-4,8-dioxa-1,11-diazaspiro[5.6]dodecan-11-yl}prop-2-en-1-one] is higher in viability at 48 h, 25 µM: 44.3% for the first, 96% for the second.

Compared with `C=CC(=O)N1CC(C)OC2(CCOCC2)C1` (stereo not drawn) [3-I12, 1-{2-methyl-1,9-dioxa-4-azaspiro[5.5]undecan-4-yl}prop-2-en-1-one], `C=CC(=O)N1CCOCC1c1ccnn1C` (stereo not drawn) [3-I19, 1-[3-(1-methyl-1H-pyrazol-5-yl)morpholin-4-yl]prop-2-en-1-one] is lower in viability at 48 h, 25 µM: 91.6% for the first, 49.7% for the second.

Compared with `C=CC(=O)N1CCC(C(=O)Nc2nc3cc(F)ccc3n2CC)CC1` [3-I13, N-(1-ethyl-5-fluoro-1H-1,3-benzodiazol-2-yl)-1-(prop-2-enoyl)piperidine-4-carboxamide], `C=CC(=O)N1CCC(C(=O)Nc2ccc(CC)cc2)CC1` [3-J12, N-(4-ethylphenyl)-1-(prop-2-enoyl)piperidine-4-carboxamide] is higher in viability at 48 h, 25 µM: 62.5% for the first, 85.6% for the second.

Compared with `C=CC(=O)N(C)CC(=O)NC(C)c1ncc(C)s1` (stereo not drawn) [3-I14, N-methyl-N-({[1-(5-methyl-1,3-thiazol-2-yl)ethyl]carbamoyl}methyl)prop-2-enamide], `C=CC(=O)N(C)CC(=O)Nc1ccc(N2CCOCC2=O)c(C)c1` [3-J07, N-methyl-N-({[3-methyl-4-(3-oxomorpholin-4-yl)phenyl]carbamoyl}methyl)prop-2-enamide] is lower in viability at 48 h, 25 µM: 69.4% for the first, 51.4% for the second.

Going from `C=CC(=O)N1CC(OCc2ccccc2F)C1` [3-I15, 1-{3-[(2-fluorophenyl)methoxy]azetidin-1-yl}prop-2-en-1-one] to `C=CC(=O)N1CC[C@H](Oc2ccccc2)C1` [3-I18, 1-[(3S)-3-phenoxypyrrolidin-1-yl]prop-2-en-1-one], the viability at 48 h, 25 µM rises from 40.4% to 103%.

Going from `C=CC(=O)N1CCN(Cc2ncon2)CC1` [3-I16, 1-{4-[(1,2,4-oxadiazol-3-yl)methyl]piperazin-1-yl}prop-2-en-1-one] to `C=CC(=O)N1CCC(C(O)c2ccnn2C)CC1` (stereo not drawn) [3-K03, 1-{4-[hydroxy(1-methyl-1H-pyrazol-5-yl)methyl]piperidin-1-yl}prop-2-en-1-one], the viability at 48 h, 25 µM falls from 106% to 59%.

First: C=CC(=O)N1CCC(C(=O)NC2CCCc3nc(C)ncc32)CC1 (stereo not drawn) [3-I17, N-(2-methyl-5,6,7,8-tetrahydroquinazolin-5-yl)-1-(prop-2-enoyl)piperidine-4-carboxamide]
Second: C=CC(=O)N1CCC(C(=O)Nc2c[nH]c(=O)c(C)c2)CC1 [3-J05, N-(5-methyl-6-oxo-1,6-dihydropyridin-3-yl)-1-(prop-2-enoyl)piperidine-4-carboxamide]
The viability at 48 h, 25 µM of the first is lower: 32% for the first, 51.5% for the second.

First: C=CC(=O)NCc1ccc(N2CCN(C)CC2)cc1 [3-I20, N-{[4-(4-methylpiperazin-1-yl)phenyl]methyl}prop-2-enamide]
Second: C=CC(=O)NCc1ccc(N2CC(C)CS2(=O)=O)cc1 (stereo not drawn) [3-J19, N-{[4-(4-methyl-1,1-dioxo-1lambda6,2-thiazolidin-2-yl)phenyl]methyl}prop-2-enamide]
The viability at 48 h, 25 µM of the first is higher: 112% for the first, 95.4% for the second.

First: C=CC(=O)N1CCC(C(=O)NC2CCN(C(=O)C(C)(C)C)CC2)CC1 [3-I21, N-[1-(2,2-dimethylpropanoyl)piperidin-4-yl]-1-(prop-2-enoyl)piperidine-4-carboxamide]
Second: C=CC(=O)N1CCC(C(=O)NCc2ccc(C(N)=O)cc2)CC1 [3-J08, N-[(4-carbamoylphenyl)methyl]-1-(prop-2-enoyl)piperidine-4-carboxamide]
The viability at 48 h, 25 µM of the first is lower: 52.8% for the first, 82.2% for the second.

Going from `C=CC(=O)N1CCC(c2nc3c(s2)CCC3)CC1` [3-I22, 1-(4-{4H,5H,6H-cyclopenta[d][1,3]thiazol-2-yl}piperidin-1-yl)prop-2-en-1-one] to `C=CC(=O)N1CCC(C(=O)NCCn2c(=O)[nH]c3ccccc32)CC1` [3-J03, N-[2-(2-oxo-2,3-dihydro-1H-1,3-benzodiazol-1-yl)ethyl]-1-(prop-2-enoyl)piperidine-4-carboxamide], the viability at 48 h, 25 µM falls from 91.2% to 72.2%.

First: C=CC(=O)Nc1cc(NC(=O)c2ccc([N+](=O)[O-])o2)ccc1F [3-J04, N-[4-fluoro-3-(prop-2-enamido)phenyl]-5-nitrofuran-2-carboxamide]
Second: C=CC(=O)Nc1ccc(-n2ccccc2=O)cc1F [3-J16, N-[2-fluoro-4-(2-oxo-1,2-dihydropyridin-1-yl)phenyl]prop-2-enamide]
The viability at 48 h, 25 µM of the first is lower: 0.415% for the first, 101% for the second.

Compared with `C=CC(=O)N1CCC(C(=O)N2CC=CCC2)(c2ccccc2)CC1` [3-J06, 1-[4-phenyl-4-(1,2,3,6-tetrahydropyridine-1-carbonyl)piperidin-1-yl]prop-2-en-1-one], `C=CC(=O)N1CCC(C(=O)NOC2CCCC2)(c2ccccc2)CC1` [3-K06, N-(cyclopentyloxy)-4-phenyl-1-(prop-2-enoyl)piperidine-4-carboxamide] is higher in viability at 48 h, 25 µM: 61.7% for the first, 77.1% for the second.

Compared with `C=CC(=O)NCCc1nnc(-c2ccccc2)o1` [3-J09, N-[2-(5-phenyl-1,3,4-oxadiazol-2-yl)ethyl]prop-2-enamide], `C=CC(=O)NCc1nc2ccccc2c(=O)n1C` [3-J10, N-[(3-methyl-4-oxo-3,4-dihydroquinazolin-2-yl)methyl]prop-2-enamide] is higher in viability at 48 h, 25 µM: 70.8% for the first, 88.6% for the second.

First: C=CC(=O)N(Cc1ccc(-n2cncn2)cc1)C1CC1 [3-J11, N-cyclopropyl-N-{[4-(1H-1,2,4-triazol-1-yl)phenyl]methyl}prop-2-enamide]
Second: C=CC(=O)N(Cc1cn2ccccc2n1)C1CC1 [3-J21, N-cyclopropyl-N-({imidazo[1,2-a]pyridin-2-yl}methyl)prop-2-enamide]
The viability at 48 h, 25 µM of the first is lower: 40.7% for the first, 73.1% for the second.

Compared with `C=CC(=O)NCc1csc2nccn12` [3-J13, N-({imidazo[2,1-b][1,3]thiazol-3-yl}methyl)prop-2-enamide], `C=CC(=O)NCCS(=O)(=O)c1cccs1` [3-J17, N-[2-(thiophene-2-sulfonyl)ethyl]prop-2-enamide] is higher in viability at 48 h, 25 µM: 76.8% for the first, 93.4% for the second.

Compared with `C=CC(=O)NCC1CS(=O)(=O)c2ccccc21` (stereo not drawn) [3-J15, N-[(1,1-dioxo-2,3-dihydro-1lambda6-benzothiophen-3-yl)methyl]prop-2-enamide], `C=CC(=O)NCCC(=O)N1CCN(c2ccccc2Cl)CC1` [3-J22, N-{3-[4-(2-chlorophenyl)piperazin-1-yl]-3-oxopropyl}prop-2-enamide] is higher in viability at 48 h, 25 µM: 81.2% for the first, 88.6% for the second.

Compared with `C=CC(=O)N1CCC(C(=O)Nc2n[nH]c3cc(C#N)c(C)cc23)CC1` [3-J18, N-(6-cyano-5-methyl-1H-indazol-3-yl)-1-(prop-2-enoyl)piperidine-4-carboxamide], `C=CC(=O)NCCC(=O)N1CCOC(c2nc(C)cs2)C1` (stereo not drawn) [3-K04, N-{3-[2-(4-methyl-1,3-thiazol-2-yl)morpholin-4-yl]-3-oxopropyl}prop-2-enamide] is lower in viability at 48 h, 25 µM: 90.3% for the first, 89.7% for the second.

First: C=CC(=O)NC(c1ccc(F)cc1)c1ccn(C)n1 (stereo not drawn) [3-J20, N-[(4-fluorophenyl)(1-methyl-1H-pyrazol-3-yl)methyl]prop-2-enamide]
Second: C=CC(=O)N1CCCC1(COC)C(N)=O (stereo not drawn) [3-K07, 2-(methoxymethyl)-1-(prop-2-enoyl)pyrrolidine-2-carboxamide]
The viability at 48 h, 25 µM of the first is lower: 99.9% for the first, 143% for the second.
